# Tests used:
# Melanocortin receptor 4 [1] = molecular target: T1, Melanocortin receptor 4 (Homo sapiens, UniProt P32245); experiment: Displacement of [I125] NDP-alpha-MSH from human MC4R stably overexpressing in HEK293 cells in presence of [I125] labeled NDP-alpha-MSH treated at 10 uM for 40 mins measured by microbeta 2 microplate counter analysis; format: cell-based
# [2] = molecular target: T2, Melanocyte-stimulating hormone receptor (Homo sapiens, UniProt Q01726); experiment: Displacement of [I125] NDP-alpha-MSH from human MC1R stably overexpressing in HEK293 cells in presence of [I125] labeled NDP-alpha-MSH treated at 10 uM for 40 mins measured by microbeta 2 microplate counter analysis; format: cell-based
# Target sequence in this assay (Q01726 whole entry): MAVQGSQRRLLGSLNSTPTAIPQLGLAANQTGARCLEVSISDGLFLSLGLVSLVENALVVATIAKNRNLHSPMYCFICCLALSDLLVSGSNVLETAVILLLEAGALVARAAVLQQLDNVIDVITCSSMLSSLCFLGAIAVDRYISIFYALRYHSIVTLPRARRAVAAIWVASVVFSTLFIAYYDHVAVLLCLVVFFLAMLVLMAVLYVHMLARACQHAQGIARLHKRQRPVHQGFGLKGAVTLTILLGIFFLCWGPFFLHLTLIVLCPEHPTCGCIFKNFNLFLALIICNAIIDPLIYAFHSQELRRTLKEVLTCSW
# [3] = molecular target: T2, Melanocyte-stimulating hormone receptor; experiment: Agonist activity at human MC1R stably overexpressing in HEK293 cells assessed as intracellular acumulation of cAMP level incubated for 30 mins measured by microbeta 2 microplate counter analysis; format: functional, cell-based
# Target sequence in this assay (Q01726 whole entry): as above
# Melanocortin receptor 5 [4] = molecular target: T3, Melanocortin receptor 5 (Homo sapiens, UniProt P33032); experiment: Displacement of [I125] NDP-alpha-MSH from human MC5R stably overexpressing in HEK293 cells in presence of [I125] labeled NDP-alpha-MSH treated at 10 uM for 40 mins measured by microbeta 2 microplate counter analysis; format: cell-based
# Melanocortin receptor 4 [5] = molecular target: T1, Melanocortin receptor 4; experiment: Agonist activity at human MC4R stably overexpressing in HEK293 cells assessed as intracellular acumulation of cAMP level incubated for 30 mins measured by microbeta 2 microplate counter analysis; format: functional, cell-based
# Melanocortin receptor 3 [6] = molecular target: T4, Melanocortin receptor 3 (Homo sapiens, UniProt P41968); experiment: Displacement of [I125] NDP-alpha-MSH from human MC3R stably overexpressing in HEK293 cells in presence of [I125] labeled NDP-alpha-MSH treated at 10 uM for 40 mins measured by microbeta 2 microplate counter analysis; format: cell-based
# Melanocortin receptor 3 [7] = molecular target: T4, Melanocortin receptor 3; experiment: Agonist activity at human MC3R stably overexpressing in HEK293 cells assessed as intracellular acumulation of cAMP level incubated for 30 mins measured by microbeta 2 microplate counter analysis; format: functional, cell-based
# Melanocortin receptor 5 [8] = molecular target: T3, Melanocortin receptor 5; experiment: Agonist activity at human MC5R stably overexpressing in HEK293 cells assessed as intracellular acumulation of cAMP level incubated for 30 mins measured by microbeta 2 microplate counter analysis; format: functional, cell-based
# [9] = molecular target: T2, Melanocyte-stimulating hormone receptor; experiment: Displacement of [I125] NDP-alpha-MSH from human MC1R stably overexpressing in HEK293 cells in presence of [I125] labeled NDP-alpha-MSH treated at 10 uM for 40 mins measured by microbeta 2 microplate counter analysis relative to control; format: cell-based
# Target sequence in this assay (Q01726 whole entry, looked up): as the sequence (Q01726 whole entry) above
# [10] = molecular target: T2, Melanocyte-stimulating hormone receptor; experiment: Agonist activity at human MC1R stably overexpressing in HEK293 cells assessed as intracellular acumulation of cAMP level incubated at 10 uM for 30 mins measured by microbeta 2 microplate counter analysis relative to MT-II; format: functional, cell-based; conditions: filed as agonist
# Target sequence in this assay (Q01726 whole entry, looked up): as the sequence (Q01726 whole entry) above
# Melanocortin receptor 3 [11] = molecular target: T4, Melanocortin receptor 3; experiment: Displacement of [I125] NDP-alpha-MSH from human MC3R stably overexpressing in HEK293 cells in presence of [I125] labeled NDP-alpha-MSH treated for 40 mins measured by microbeta 2 microplate counter analysis; format: cell-based
# Melanocortin receptor 4 [12] = molecular target: T1, Melanocortin receptor 4; experiment: Displacement of [I125] NDP-alpha-MSH from human MC4R stably overexpressing in HEK293 cells in presence of [I125] labeled NDP-alpha-MSH treated for 40 mins measured by microbeta 2 microplate counter analysis; format: cell-based
# [13] = molecular target: T2, Melanocyte-stimulating hormone receptor; experiment: Displacement of [I125] NDP-alpha-MSH from human MC1R stably overexpressing in HEK293 cells in presence of [I125] labeled NDP-alpha-MSH treated for 40 mins measured by microbeta 2 microplate counter analysis; format: cell-based
# Target sequence in this assay (Q01726 whole entry): as above
# Melanocortin receptor 5 [14] = molecular target: T3, Melanocortin receptor 5; experiment: Displacement of [I125] NDP-alpha-MSH from human MC5R stably overexpressing in HEK293 cells in presence of [I125] labeled NDP-alpha-MSH treated for 40 mins measured by microbeta 2 microplate counter analysis; format: cell-based
# Melanocortin receptor 5 [15] = molecular target: T3, Melanocortin receptor 5; experiment: Displacement of [I125] NDP-alpha-MSH from human MC5R stably overexpressing in HEK293 cells in presence of [I125] labeled NDP-alpha-MSH treated at 10 uM for 40 mins measured by microbeta 2 microplate counter analysis relative to control; format: cell-based
# Melanocortin receptor 3 [16] = molecular target: T4, Melanocortin receptor 3; experiment: Displacement of [I125] NDP-alpha-MSH from human MC3R stably overexpressing in HEK293 cells in presence of [I125] labeled NDP-alpha-MSH treated at 10 uM for 40 mins measured by microbeta 2 microplate counter analysis relative to control; format: cell-based; conditions: filed as agonist
# Melanocortin receptor 5 [17] = molecular target: T3, Melanocortin receptor 5; experiment: Agonist activity at human MC5R stably overexpressing in HEK293 cells assessed as intracellular acumulation of cAMP level incubated at 10 uM for 30 mins measured by microbeta 2 microplate counter analysis relative to MT-II; format: functional, cell-based; conditions: filed as agonist
# Melanocortin receptor 3 [18] = molecular target: T4, Melanocortin receptor 3; experiment: Agonist activity at human MC3R stably overexpressing in HEK293 cells assessed as intracellular acumulation of cAMP level incubated at 10 uM for 30 mins measured by microbeta 2 microplate counter analysis relative to MT-II; format: functional, cell-based; conditions: filed as agonist
# T1 sequence (P32245 whole entry): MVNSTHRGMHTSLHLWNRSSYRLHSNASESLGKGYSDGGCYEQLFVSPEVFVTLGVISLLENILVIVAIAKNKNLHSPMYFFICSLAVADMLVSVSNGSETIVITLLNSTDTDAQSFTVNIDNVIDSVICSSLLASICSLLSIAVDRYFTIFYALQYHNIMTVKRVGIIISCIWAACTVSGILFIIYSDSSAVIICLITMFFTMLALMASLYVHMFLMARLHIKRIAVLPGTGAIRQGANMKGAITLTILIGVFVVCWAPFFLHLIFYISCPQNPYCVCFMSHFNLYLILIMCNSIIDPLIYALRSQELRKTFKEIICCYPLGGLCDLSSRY
# T4 sequence (P41968 whole entry): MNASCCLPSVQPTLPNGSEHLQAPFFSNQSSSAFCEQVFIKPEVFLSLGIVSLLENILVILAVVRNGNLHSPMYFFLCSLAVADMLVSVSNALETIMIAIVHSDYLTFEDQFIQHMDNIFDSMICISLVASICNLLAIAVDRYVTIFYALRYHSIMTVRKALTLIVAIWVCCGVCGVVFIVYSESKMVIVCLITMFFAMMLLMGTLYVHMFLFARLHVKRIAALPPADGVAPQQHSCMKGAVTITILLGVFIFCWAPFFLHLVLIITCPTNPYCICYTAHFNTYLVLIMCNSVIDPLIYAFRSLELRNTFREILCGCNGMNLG
# T3 sequence (P33032 whole entry): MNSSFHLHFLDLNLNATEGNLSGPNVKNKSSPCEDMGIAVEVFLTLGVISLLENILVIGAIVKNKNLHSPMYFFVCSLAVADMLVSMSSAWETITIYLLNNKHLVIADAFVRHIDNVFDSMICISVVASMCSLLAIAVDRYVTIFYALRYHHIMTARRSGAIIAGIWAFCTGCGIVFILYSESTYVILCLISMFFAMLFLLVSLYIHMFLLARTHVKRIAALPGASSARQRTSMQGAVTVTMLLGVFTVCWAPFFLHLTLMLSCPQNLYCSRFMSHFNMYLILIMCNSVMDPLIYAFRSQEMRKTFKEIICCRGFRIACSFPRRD
Compound,IC50 (Melanocortin receptor 4 [1]),IC50 [2],EC50 ([3]; hek293),IC50 (Melanocortin receptor 5 [4]),EC50 (Melanocortin receptor 4 [5]; hek293),IC50 (Melanocortin receptor 3 [6]),EC50 (Melanocortin receptor 3 [7]; hek293),EC50 (Melanocortin receptor 5 [8]; hek293),EC50 ([3]; read-out: EC50) [nM],EC50 (Melanocortin receptor 4 [5]; read-out: EC50) [nM],Emax [10] [%],IC50 (Melanocortin receptor 3 [11]) [nM],IC50 [13] [nM],IC50 (Melanocortin receptor 5 [14]) [nM],EC50 (Melanocortin receptor 3 [7]; read-out: EC50) [nM],also measured
CCCC[C@H](NC(=O)[C@@H](Cc1ccccc1)NC(=O)[C@H](Cc1c[nH]cn1)NC(C)=O)C(=O)N[C@H]1Cn2nncc2CNC1=O,Not Active,Not Active,Not Active,Not Active,Not Active,Not Active,Not Active,Not Active,–,–,–,–,–,–,–,–
CC(=O)N[C@@H](Cc1c[nH]cn1)C(=O)N[C@H](Cc1ccc(C(F)(F)F)cc1)C(=O)N[C@@H](CCCNC(=N)N)C(=O)N[C@H]1Cc2c([nH]c3ccccc23)CNC1=O,–,–,–,–,–,–,Not Active,Not Active,37,4.1,100,> 1000,81,40,–,Activity [9]: 35%; IC50 (Melanocortin receptor 4 [12]): 2.5 nM
CCCC[C@H](NC(C)=N)C(=O)N[C@@H]1NCCCC[C@@H](C(N)=O)NC(=O)[C@H](Cc2c[nH]c3ccccc23)NC(=O)[C@H](CCCNC(=N)N)NC(=O)[C@H](Cc2ccccc2)NC(=O)[C@H](Cc2cnc[nH]2)NC1=O,–,–,–,–,–,–,–,–,1,2,–,2,1,4,–,Activity (Melanocortin receptor 5 [15]; filed as agonist): 100%; Activity ([9]; filed as agonist): 100%; Activity (Melanocortin receptor 3 [16]): 100%; EC50 (Melanocortin receptor 5 [8]; read-out: EC50): 6 nM
CC(=O)N[C@@H](Cc1c[nH]cn1)C(=O)N[C@H](Cc1ccccc1)C(=O)N[C@@H](CCCNC(=N)N)C(=O)N[C@H]1Cn2nncc2CNC1=O,Not Active,–,–,–,Not Active,Not Active,–,Not Active,136,–,96,–,9.6,> 1000,> 1000,Activity [9]: 21%
CC(=O)N[C@@H](Cc1cnc[nH]1)C(=O)N[C@H](Cc1ccccc1)C(=O)N[C@@H](CCCNC(=N)N)C(=O)N[C@@H](Cc1c[nH]c2ccccc12)C(N)=O,–,–,–,–,–,–,–,–,–,–,100,–,–,–,–,Activity (Melanocortin receptor 5 [15]; filed as agonist): 100%; Emax (Melanocortin receptor 5 [17]): 63%; Emax (Melanocortin receptor 3 [18]): 100%
CCCC[C@H](NC(=O)[C@@H](Cc1ccccc1)NC(=O)[C@H](Cc1c[nH]cn1)NC(C)=O)C(=O)N[C@H]1Cc2c([nH]c3ccccc23)CNC1=O,Not Active,Not Active,–,Not Active,–,Not Active,–,Not Active,> 1000,> 1000,–,–,–,–,> 1000,–

# Further lines, with some results ahead:
IC50 (Melanocortin receptor 4 [1]),IC50 [2],EC50 ([3]; hek293),IC50 (Melanocortin receptor 5 [4]),EC50 (Melanocortin receptor 4 [5]; hek293),IC50 (Melanocortin receptor 3 [6]),EC50 (Melanocortin receptor 3 [7]; hek293),EC50 (Melanocortin receptor 5 [8]; hek293),EC50 ([3]; read-out: EC50) [nM],EC50 (Melanocortin receptor 4 [5]; read-out: EC50) [nM],Emax [10] [%],IC50 (Melanocortin receptor 3 [11]) [nM],IC50 [13] [nM],IC50 (Melanocortin receptor 5 [14]) [nM],EC50 (Melanocortin receptor 3 [7]; read-out: EC50) [nM],Compound,also measured
Not Active,Not Active,Not Active,Not Active,Not Active,Not Active,Not Active,Not Active,–,–,–,–,–,–,–,CCCC[C@H](NC(=O)[C@@H](Cc1ccccc1)NC(=O)[C@H](Cc1c[nH]cn1)NC(C)=O)C(=O)N[C@H]1Cc2ccccc2CNC1=O,–
Not Active,Not Active,Not Active,Not Active,Not Active,Not Active,Not Active,Not Active,–,–,–,–,–,–,–,CC(=O)N[C@@H](Cc1c[nH]cn1)C(=O)N[C@H](Cc1ccccc1)C(=O)N[C@@H](CCCNC(=N)N)C(=O)N[C@H]1Cc2ccccc2CNC1=O,–
–,–,–,–,–,–,–,–,11.2,171,100,165,34,> 1000,166,CC(=O)N[C@@H](Cc1c[nH]cn1)C(=O)N[C@H](Cc1ccccc1)C(=O)N[C@@H](CCCNC(=N)N)C(=O)N[C@H]1Cc2c([nH]c3ccccc23)CNC1=O,Activity (Melanocortin receptor 5 [15]): 39%; Emax (Melanocortin receptor 5 [17]): 61%; Activity ([9]; filed as agonist): 83%; Activity (Melanocortin receptor 3 [16]): 61%; EC50 (Melanocortin receptor 5 [8]; read-out: EC50): 165 nM; Emax (Melanocortin receptor 3 [18]): 66%; IC50 (Melanocortin receptor 4 [12]): 166 nM
